Test results from patent publication US6518243B1, “Desleucyl glycopeptide antibiotics and methods of making same” (Trustees of Princeton University, priority 1999, dated 2003).

Tests used:
S. aureus (ATCC 29213) = assay: Zone of inhibition screen, 96 well agar array format; type: cell-based; design: scale not given here
Summary of the method: (§1)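 Antibacterial testing on a 96-well agar array; each compound screened separately.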

E. faecalis (CL 4877) = assay: as above; type: cell-based; design: scale not given here
Summary of the method: as §1

[1] = zone of inhibition relative to 1 mg/ml stock solution of p-chlorobiphenylvancomycin
[2] = zone of inhibition relative to 1 mg/ml p-chlorobiphenylvancomycin

CC1OC(OC2C(Oc3c4cc5cc3Oc3ccc(cc3Cl)C(O)C3NC(=O)C(NC(=O)C5NC(=O)C(CC(N)=O)NC(=O)C(NC(=O)C(CCC(N)=O)NC(=O)OC(C)(C)C)C(O)c5ccc(c(Cl)c5)O4)c4ccc(O)c(c4)-c4c(O)cc(O)cc4C(C(=O)O)NC3=O)OC(CO)C(O)C2O)CC(C)(NCc2ccc(-c3ccc(Cl)cc3)cc2)C1O (stereo not shown) [Compound 141]
zone score, S. aureus ATCC 29213 (S. aureus (ATCC 29213); [1]): 2 | zone score, E. faecalis CL 4877 (E. faecalis (CL 4877); [1]): 2

CC1OC(OC2C(Oc3c4cc5cc3Oc3ccc(cc3Cl)C(O)C(NC(=O)C(O)C(O)C(O)C(O)CO)C(=O)NC(CC(N)=O)C(=O)NC5C(=O)NC3C(=O)NC(C(=O)NC(C(=O)O)c5cc(O)cc(O)c5-c5cc3ccc5O)C(O)c3ccc(c(Cl)c3)O4)OC(CO)C(O)C2O)CC(C)(NCc2ccc(-c3ccc(Cl)cc3)cc2)C1O (stereo not shown) [Compound 157]
zone score, S. aureus ATCC 29213 (S. aureus (ATCC 29213); [1]): 2 | zone score, E. faecalis CL 4877 (E. faecalis (CL 4877); [1]): 2

CC1OC(OC2C(Oc3c4cc5cc3Oc3ccc(cc3Cl)[C@@H](O)[C@@H](NC(=O)[C@@H](CCCNC(=N)N)NC(N)=O)C(=O)N[C@@H](CC(N)=O)C(=O)N[C@H]5C(=O)NC3C(=O)N[C@H](C(=O)N[C@@H](C(=O)O)c5cc(O)cc(O)c5-c5cc3ccc5O)[C@H](O)c3ccc(c(Cl)c3)O4)OC(CO)C(O)C2O)CC(C)(NCc2ccc(-c3ccc(Cl)cc3)cc2)C1O (stereo partly shown) [Compound 187]
zone score, S. aureus ATCC 29213 (S. aureus (ATCC 29213); [1]): 2 | zone score, E. faecalis CL 4877 (E. faecalis (CL 4877); [1]): 2

CC1OC(OC2C(Oc3c4cc5cc3Oc3ccc(cc3Cl)C(O)C3NC(=O)C(NC(=O)C5NC(=O)C(CC(N)=O)NC(=O)C(NC(=O)C=CC(=O)NC(N)=O)C(O)c5ccc(c(Cl)c5)O4)c4ccc(O)c(c4)-c4c(O)cc(O)cc4C(C(=O)O)NC3=O)OC(CO)C(O)C2O)CC(C)(NCc2ccc(-c3ccc(Cl)cc3)cc2)C1O (stereo not shown) [Compound 189]
zone score, S. aureus ATCC 29213 (S. aureus (ATCC 29213); [1]): 2 | zone score, E. faecalis CL 4877 (E. faecalis (CL 4877); [1]): 2

CC(NC=O)C(=O)NC1C(=O)NC(CC(N)=O)C(=O)NC2C(=O)NC3C(=O)NC(C(=O)NC(C(=O)O)c4cc(O)cc(O)c4-c4cc3ccc4O)C(O)c3ccc(c(Cl)c3)Oc3cc2cc(c3OC2OC(CO)C(O)C(O)C2OC2CC(C)(NCc3ccc(-c4ccc(Cl)cc4)cc3)C(O)C(C)O2)Oc2ccc(cc2Cl)C1O (stereo not shown) [Compound 194]
zone score, S. aureus ATCC 29213 (S. aureus (ATCC 29213); [1]): 2 | zone score, E. faecalis CL 4877 (E. faecalis (CL 4877); [1]): 2

CC1OC(OC2C(Oc3c4cc5cc3Oc3ccc(cc3Cl)C(O)C3NC(=O)C(NC(=O)C5NC(=O)C(CC(N)=O)NC(=O)C(NC(=O)CNC(=O)c5cccnc5)C(O)c5ccc(c(Cl)c5)O4)c4ccc(O)c(c4)-c4c(O)cc(O)cc4C(C(=O)O)NC3=O)OC(CO)C(O)C2O)CC(C)(NCc2ccc(-c3ccc(Cl)cc3)cc2)C1O (stereo not shown) [Compound 197]
zone score, S. aureus ATCC 29213 (S. aureus (ATCC 29213); [1]): 2 | zone score, E. faecalis CL 4877 (E. faecalis (CL 4877); [1]): 2

CC1OC(OC2C(Oc3c4cc5cc3Oc3ccc(cc3Cl)C(O)C3NC(=O)C(NC(=O)C5NC(=O)C(CC(N)=O)NC(=O)C(NC(=O)C(=O)NNC(=N)N)C(O)c5ccc(c(Cl)c5)O4)c4ccc(O)c(c4)-c4c(O)cc(O)cc4C(C(=O)O)NC3=O)OC(CO)C(O)C2O)CC(C)(NCc2ccc(-c3ccc(Cl)cc3)cc2)C1O (stereo not shown) [Compound 199]
zone score, S. aureus ATCC 29213 (S. aureus (ATCC 29213); [1]): 2 | zone score, E. faecalis CL 4877 (E. faecalis (CL 4877); [1]): 2

CC1OC(OC2C(Oc3c4cc5cc3Oc3ccc(cc3Cl)C(O)C3NC(=O)C(NC(=O)C5NC(=O)C(CC(N)=O)NC(=O)C(NC(=O)C(N)=O)C(O)c5ccc(c(Cl)c5)O4)c4ccc(O)c(c4)-c4c(O)cc(O)cc4C(C(=O)O)NC3=O)OC(CO)C(O)C2O)CC(C)(NCc2ccc(-c3ccc(Cl)cc3)cc2)C1O (stereo not shown) [Compound 200]
zone score, S. aureus ATCC 29213 (S. aureus (ATCC 29213); [1]): 2 | zone score, E. faecalis CL 4877 (E. faecalis (CL 4877); [1]): 2

CC1OC(OC2C(Oc3c4cc5cc3Oc3ccc(cc3Cl)C(O)C3NC(=O)C(NC(=O)C5NC(=O)C(CC(N)=O)NC(=O)C(NC(=O)C5=CC(O)C(O)C(O)C5)C(O)c5ccc(c(Cl)c5)O4)c4ccc(O)c(c4)-c4c(O)cc(O)cc4C(C(=O)O)NC3=O)OC(CO)C(O)C2O)CC(C)(NCc2ccc(-c3ccc(Cl)cc3)cc2)C1O (stereo not shown) [Compound 201]
zone score, S. aureus ATCC 29213 (S. aureus (ATCC 29213); [1]): 2 | zone score, E. faecalis CL 4877 (E. faecalis (CL 4877); [1]): 2

CC1OC(OC2C(Oc3c4cc5cc3Oc3ccc(cc3Cl)C(O)C3NC(=O)C(NC(=O)C5NC(=O)C(CC(N)=O)NC(=O)C(NC(=O)CCC=O)C(O)c5ccc(c(Cl)c5)O4)c4ccc(O)c(c4)-c4c(O)cc(O)cc4C(C(=O)O)NC3=O)OC(CO)C(O)C2O)CC(C)(NCc2ccc(-c3ccc(Cl)cc3)cc2)C1O (stereo not shown) [Compound 204]
zone score, S. aureus ATCC 29213 (S. aureus (ATCC 29213); [2]): 2 | zone score, E. faecalis CL 4877 (E. faecalis (CL 4877); [2]): 2

CC1OC(OC2C(Oc3c4cc5cc3Oc3ccc(cc3Cl)C(O)C3NC(=O)C(NC(=O)C5NC(=O)C(CC(N)=O)NC(=O)C(NC(=O)CS(=O)(=O)O)C(O)c5ccc(c(Cl)c5)O4)c4ccc(O)c(c4)-c4c(O)cc(O)cc4C(C(=O)O)NC3=O)OC(CO)C(O)C2O)CC(C)(NCc2ccc(-c3ccc(Cl)cc3)cc2)C1O (stereo not shown) [Compound 205]
zone score, S. aureus ATCC 29213 (S. aureus (ATCC 29213); [2]): 2 | zone score, E. faecalis CL 4877 (E. faecalis (CL 4877); [2]): 2

CC1OC(OC2C(Oc3c4cc5cc3Oc3ccc(cc3Cl)C(O)C3NC(=O)C(NC(=O)C5NC(=O)C(CC(N)=O)NC(=O)C(NC(=O)c5c[nH]c(=O)[nH]c5=O)C(O)c5ccc(c(Cl)c5)O4)c4ccc(O)c(c4)-c4c(O)cc(O)cc4C(C(=O)O)NC3=O)OC(CO)C(O)C2O)CC(C)(NCc2ccc(-c3ccc(Cl)cc3)cc2)C1O (stereo not shown) [Compound 208]
zone score, S. aureus ATCC 29213 (S. aureus (ATCC 29213); [2]): 2 | zone score, E. faecalis CL 4877 (E. faecalis (CL 4877); [2]): 2

CC1OC(OC2C(Oc3c4cc5cc3Oc3ccc(cc3Cl)C(O)C3NC(=O)C(NC(=O)C5NC(=O)C(CC(N)=O)NC(=O)C(NC(=O)CNC(=O)CNC(=O)CNC(=O)CNC(=O)OCc5ccccc5)C(O)c5ccc(c(Cl)c5)O4)c4ccc(O)c(c4)-c4c(O)cc(O)cc4C(C(=O)O)NC3=O)OC(CO)C(O)C2O)CC(C)(NCc2ccc(-c3ccc(Cl)cc3)cc2)C1O (stereo not shown) [Compound 214]
zone score, S. aureus ATCC 29213 (S. aureus (ATCC 29213); [2]): 2 | zone score, E. faecalis CL 4877 (E. faecalis (CL 4877); [2]): 2

CC1OC(OC2C(Oc3c4cc5cc3Oc3ccc(cc3Cl)C(O)C3NC(=O)C(NC(=O)C5NC(=O)C(CC(N)=O)NC(=O)C(NC(=O)CNC(=O)CNC(=O)CNC(=O)OCc5ccccc5)C(O)c5ccc(c(Cl)c5)O4)c4ccc(O)c(c4)-c4c(O)cc(O)cc4C(C(=O)O)NC3=O)OC(CO)C(O)C2O)CC(C)(NCc2ccc(-c3ccc(Cl)cc3)cc2)C1O (stereo not shown) [Compound 215]
zone score, S. aureus ATCC 29213 (S. aureus (ATCC 29213); [2]): 2 | zone score, E. faecalis CL 4877 (E. faecalis (CL 4877); [2]): 2

CC=C(N)C(=O)NC1C(=O)NC(CC(N)=O)C(=O)NC2C(=O)NC3C(=O)NC(C(=O)NC(C(=O)O)c4cc(O)cc(O)c4-c4cc3ccc4O)C(O)c3ccc(c(Cl)c3)Oc3cc2cc(c3OC2OC(CO)C(O)C(O)C2OC2CC(C)(NCc3ccc(-c4ccc(Cl)cc4)cc3)C(O)C(C)O2)Oc2ccc(cc2Cl)C1O (stereo not shown) [Compound 219]
zone score, S. aureus ATCC 29213 (S. aureus (ATCC 29213); [2]): 2 | zone score, E. faecalis CL 4877 (E. faecalis (CL 4877); [2]): 2

CC1OC(OC2C(Oc3c4cc5cc3Oc3ccc(cc3Cl)C(O)C3NC(=O)C(NC(=O)C5NC(=O)C(CC(N)=O)NC(=O)C(NC(=O)CCNC(N)=O)C(O)c5ccc(c(Cl)c5)O4)c4ccc(O)c(c4)-c4c(O)cc(O)cc4C(C(=O)O)NC3=O)OC(CO)C(O)C2O)CC(C)(NCc2ccc(-c3ccc(Cl)cc3)cc2)C1O (stereo not shown) [Compound 221]
zone score, S. aureus ATCC 29213 (S. aureus (ATCC 29213); [2]): 2 | zone score, E. faecalis CL 4877 (E. faecalis (CL 4877); [2]): 2

CC1OC(OC2C(Oc3c4cc5cc3Oc3ccc(cc3Cl)C(O)C3NC(=O)C(NC(=O)C5NC(=O)C(CC(N)=O)NC(=O)C(NC(=O)CON)C(O)c5ccc(c(Cl)c5)O4)c4ccc(O)c(c4)-c4c(O)cc(O)cc4C(C(=O)O)NC3=O)OC(CO)C(O)C2O)CC(C)(NCc2ccc(-c3ccc(Cl)cc3)cc2)C1O (stereo not shown) [Compound 222]
zone score, S. aureus ATCC 29213 (S. aureus (ATCC 29213); [2]): 2 | zone score, E. faecalis CL 4877 (E. faecalis (CL 4877); [2]): 2

CC1OC(OC2C(Oc3c4cc5cc3Oc3ccc(cc3Cl)C(O)C3NC(=O)C(NC(=O)C5NC(=O)C(CC(N)=O)NC(=O)C(NC(=O)CNC(=O)CNC(=O)OC(C)(C)C)C(O)c5ccc(c(Cl)c5)O4)c4ccc(O)c(c4)-c4c(O)cc(O)cc4C(C(=O)O)NC3=O)OC(CO)C(O)C2O)CC(C)(NCc2ccc(-c3ccc(Cl)cc3)cc2)C1O (stereo not shown) [Compound 223]
zone score, S. aureus ATCC 29213 (S. aureus (ATCC 29213); [2]): 2 | zone score, E. faecalis CL 4877 (E. faecalis (CL 4877); [2]): 2

CC1OC(OC2C(Oc3c4cc5cc3Oc3ccc(cc3Cl)C(O)C3NC(=O)C(NC(=O)C5NC(=O)C(CC(N)=O)NC(=O)C(NC(=O)c5cccnc5Sc5ccc(Cl)cc5)C(O)c5ccc(c(Cl)c5)O4)c4ccc(O)c(c4)-c4c(O)cc(O)cc4C(C(=O)O)NC3=O)OC(CO)C(O)C2O)CC(C)(NCc2ccc(-c3ccc(Cl)cc3)cc2)C1O (stereo not shown) [Compound 230]
zone score, S. aureus ATCC 29213 (S. aureus (ATCC 29213); [2]): 2 | zone score, E. faecalis CL 4877 (E. faecalis (CL 4877); [2]): 2

C=C(C(=O)NC1C(=O)NC(CC(N)=O)C(=O)NC2C(=O)NC3C(=O)NC(C(=O)NC(C(=O)O)c4cc(O)cc(O)c4-c4cc3ccc4O)C(O)c3ccc(c(Cl)c3)Oc3cc2cc(c3OC2OC(CO)C(O)C(O)C2OC2CC(C)(NCc3ccc(-c4ccc(Cl)cc4)cc3)C(O)C(C)O2)Oc2ccc(cc2Cl)C1O)C(F)(F)F (stereo not shown) [Compound 231]
zone score, S. aureus ATCC 29213 (S. aureus (ATCC 29213); [2]): 2 | zone score, E. faecalis CL 4877 (E. faecalis (CL 4877); [2]): 2

CC1OC(OC2C(Oc3c4cc5cc3Oc3ccc(cc3Cl)C(O)C(NC(=O)C(C)(CO)CO)C(=O)NC(CC(N)=O)C(=O)NC5C(=O)NC3C(=O)NC(C(=O)NC(C(=O)O)c5cc(O)cc(O)c5-c5cc3ccc5O)C(O)c3ccc(c(Cl)c3)O4)OC(CO)C(O)C2O)CC(C)(NCc2ccc(-c3ccc(Cl)cc3)cc2)C1O (stereo not shown) [Compound 232]
zone score, S. aureus ATCC 29213 (S. aureus (ATCC 29213); [2]): 2 | zone score, E. faecalis CL 4877 (E. faecalis (CL 4877); [2]): 2

CC1OC(OC2C(Oc3c4cc5cc3Oc3ccc(cc3Cl)C(O)C3NC(=O)C(NC(=O)C5NC(=O)C(CC(N)=O)NC(=O)C(NC(=O)COc5cc(Cl)c(Cl)cc5Cl)C(O)c5ccc(c(Cl)c5)O4)c4ccc(O)c(c4)-c4c(O)cc(O)cc4C(C(=O)O)NC3=O)OC(CO)C(O)C2O)CC(C)(NCc2ccc(-c3ccc(Cl)cc3)cc2)C1O (stereo not shown) [Compound 233]
zone score, S. aureus ATCC 29213 (S. aureus (ATCC 29213); [2]): 2 | zone score, E. faecalis CL 4877 (E. faecalis (CL 4877); [2]): 2

COc1ccc(C(=O)NC2C(=O)NC(CC(N)=O)C(=O)NC3C(=O)NC4C(=O)NC(C(=O)NC(C(=O)O)c5cc(O)cc(O)c5-c5cc4ccc5O)C(O)c4ccc(c(Cl)c4)Oc4cc3cc(c4OC3OC(CO)C(O)C(O)C3OC3CC(C)(NCc4ccc(-c5ccc(Cl)cc5)cc4)C(O)C(C)O3)Oc3ccc(cc3Cl)C2O)c(OC)c1 (stereo not shown) [Compound 236]
zone score, S. aureus ATCC 29213 (S. aureus (ATCC 29213); [2]): 2 | zone score, E. faecalis CL 4877 (E. faecalis (CL 4877); [2]): 2
